# Patent publication US5424205A, “Amyloidin protease and uses thereof” (Athena Neurosciences, Inc., priority 1993, dated 1995)
# Where two headings read alike, the source gives them in different places. Starred links: 1 amine or outer side, 2 acyl side, 3 side chain; linkers in the order of their positions; H or OH if unused. Residues, ends and D or L forms follow the SMILES beside them. *: point of attachment. pNA = O=[N+]([O-])c1ccc(N*)cc1; Suc = O=C(CCC(=O)[*:2])[*:1]; MeOSuc = COC(=O)CCC(=O)*; Cbz = O=C(OCc1ccccc1)*; Boc = CC(C)(C)OC(=O)*
# B1: rat mast cell protease I (RMCP I) (protein)
# chain: IIGGVESRPHSRPYMAHLEITTERGYKATCGGFLVTRQFVMTAAHCKGRETTVTLGVHDVSKTESTQQKIKVEKQIVHPNYNFYSNLHDIMLLKLQKKAKVTPAVDVIPLPQPSDFLKPGKMCRAAGWGQTGVTKPTSNTLREVKQRIMDKEACKNYFHYNYNFQVCVGSPRKIRSAYKGDSGGPLVCAGVAHGIVSYGRGDAKPPAVFTRISPYVPWINKVIKGKDLTSLSLHESESPS
# Legend:
# amyloidin [1] = biological target: T1, amyloidin (Homo sapiens, UniProt P52888); assay: Inhibition of amyloidin by various inhibitors (APP592-601 peptide cleavage); format: biochemical
# T1 construct: from tissue; a purification from blood is also described
# T1 sequence (P52888 whole entry): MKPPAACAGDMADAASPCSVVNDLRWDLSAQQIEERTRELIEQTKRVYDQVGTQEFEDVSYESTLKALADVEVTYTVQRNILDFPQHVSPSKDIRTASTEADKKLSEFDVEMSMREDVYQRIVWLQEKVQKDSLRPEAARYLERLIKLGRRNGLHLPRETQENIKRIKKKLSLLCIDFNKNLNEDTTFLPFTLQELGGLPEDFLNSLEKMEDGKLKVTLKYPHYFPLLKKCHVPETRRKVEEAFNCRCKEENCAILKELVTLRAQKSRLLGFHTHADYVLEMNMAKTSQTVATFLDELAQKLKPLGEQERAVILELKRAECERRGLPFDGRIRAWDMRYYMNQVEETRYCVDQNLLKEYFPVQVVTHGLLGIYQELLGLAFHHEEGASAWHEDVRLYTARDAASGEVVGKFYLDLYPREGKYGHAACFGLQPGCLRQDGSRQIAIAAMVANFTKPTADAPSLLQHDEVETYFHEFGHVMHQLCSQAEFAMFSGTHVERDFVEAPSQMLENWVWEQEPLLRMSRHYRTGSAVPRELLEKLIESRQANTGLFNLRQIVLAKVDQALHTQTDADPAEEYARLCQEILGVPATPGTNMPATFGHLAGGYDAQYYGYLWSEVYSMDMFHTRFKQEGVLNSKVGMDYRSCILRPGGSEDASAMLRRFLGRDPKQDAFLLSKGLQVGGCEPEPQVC
# brain protease = conditions: TLC; 125I-labelled peptide; Abraham et al; cited from earlier work
# amyloidin [2] = biological target: T1, amyloidin; assay: Cleavage of short peptide para-nitroanilide substrates by amyloidin (A405); format: biochemical; conditions: pH 7.5; up to 2 hours
# amyloidin [3] = biological target: T1, amyloidin; assay: Cleavage of full-length APP from baculovirus cells by amyloidin; format: biochemical; conditions: certain preliminary conditions
# [4] = biological target: APP592-601 (N-acetyl-Ser-Glu-Val-Lys-Met-Asp-Ala-Glu-Phe-Arg)
# amyloidin [5] = biological target: T1, amyloidin; assay: Cleavage of APP592-601 and its analogs by amyloidin (subsite requirements); format: biochemical; conditions: pH 7.5, CaCl2, 37° C., 60 min; RP-HPLC
# Protocol: Routinely, 25 ul of enzyme solution were mixed with 10 ul of 1M Tris, pH 7.5, 5 ul 10 mM CaCl2, and 10 ul of a 2 mg/ml Stock solution of APP592-601 in water, or 20 mM Tris, pH 7.5, 0.15M NaCl, in 1.5 ml polypropylene microfuge tubes. The reaction mixtures were incubated for 60 min at 37° C. in a water bath, then quenched with 450 ul ice-cold ethanol, and incubated on ice for a further 20 min. They were centrifuged at 15,000×g for 10 min, and the supernatants transferred to new polypropylene tubes and dried under vacuum. The residue was dissolved in 0.5 ml water, centrifuged at 15,000×g for 5 min, and 200 ul of the supernatant injected onto a 0.46×30 cm Vydac C18 column equilibrated with 0.1% trifluoroacetic acid in water, at 1 ml/min. The column was immediately eluted with a linear gradient to 40% acetronitrile in 0.1% trifluoroacetic acid in water, over 20 minutes. The elution was monitored at 220 nm, and peaks were individually collected, hydrolyzed in 6N HCl at […] for 2 hr, then subjected to quantitative amino-acid analysis in an Applied Biosystems amino-acid analyzer. Once identified, times of elution were used to identify cleavage patterns.
# In order to test the subsite requirements of amyloidin in the APP592-601 cleavage assay, analogs of this peptide substrate were synthesized.
# Following synthesis and purification, the peptides were then incubated with amyloidin under conditions identical to those developed with APP592-601. The underlined residues designated changes from the native peptide sequence while the arrows indicate peptide cleavage sites. [drawing 5]
# [6] = biological target: human amyloidin protease (human)
# [7] = biological target: soybean trypsin inhibitor (Sigma Chemicals) immobilized on CH-Sepharose; assay: affinity column of immobilized soybean trypsin inhibitor; activity measured in the flow-through
molecule,measurement,setting,value
aprotinin,% Control Activity,amyloidin [1],102%
same,inhibitory effect on amyloidin,amyloidin [1],nor did aprotinin
HSEVKMDAEF,sites of cleavage by brain protease,brain protease,"primarily at three sites, between the Lys-Met, Met-Asp, and Asp-Ala, with some cleavage obtained at His-Ser"
"N=C(N)NCCC[C@H](NC(=O)OCc1ccccc1)C(=O)N[C@@H](CCCCN)C(=O)Nc1ccc([N+](=O)[O-])cc1 [Z-RK-pNA, benzyloxycarbonylarginyl-lysyl-] (Cbz-Arg-Lys-pNA)",cleavage of p-NA substrate by amyloidin (increase in A405),amyloidin [2],0
CSCC[C@@H](C=O)NC(=O)[C@H](CC(C)C)NC(=O)[C@H](CC(C)C)NC(C)=O [Calp. Inh. II] (Ac-Leu-Leu-Met-aldehyde),remaining activity at 50 µg/mL,"amyloidin [1]; assay conc. 50 ug/ml, 30 min pre-incubation, room temperature, read-out: % Control Activity",130%
same,inhibitory effect on amyloidin,amyloidin [1]; in words,no inhibitory effect
full-length protein (APP): full-length protein (APP) produced by baculovirus cells transformed with the gene encoding APP,cleavage of full-length APP by amyloidin,amyloidin [3],did not cleave
"C[C@H](NC(=O)OCc1ccccc1)C(=O)N[C@@H](C)C(=O)Nc1ccc([N+](=O)[O-])cc1 [Z-AA-pNA, benzyloxycarbonylalanyl-alanyl-] (Cbz-Ala-Ala-pNA)",cleavage of p-NA substrate by amyloidin (increase in A405),amyloidin [2],0
"CSCC[C@H](NC(=O)[C@H](CCCCN)NC(=O)[C@@H](NC(=O)[C@H](CCC(=O)O)NC(C)=O)C(C)C)C(=O)Nc1ccc([N+](=O)[O-])cc1 [Ac-EVKM-PNA, acetylglutamyl-valyl-lysyl-methinyl-pNA] (Ac-EVKM-pNA)",cleavage of p-NA substrate by amyloidin (increase in A405),amyloidin [2],0
CC(C)C[C@H](NC(=O)[C@@H](NC(=O)N[C@@H](Cc1ccccc1)C(=O)O)[C@@H]1CCN=C(N)N1)C(=O)N[C@H](C=O)Cc1ccccc1 [chymostatin],remaining activity at 25 µg/mL,amyloidin [1]; read-out: % Control Activity,77%
human amyloidin protease (enzyme),increase in absorbance at 405 nm,MeS-AAPV-pNA,0
same,increase in absorbance at 405 nm,Suc-AAPM-pNA,0
same,increase in absorbance at 405 nm,Boc-AAd-Pna,0
same,increase in absorbance at 405 nm,Suc-AAPF-pNA,0
same,increase in absorbance at 405 nm,Ac-AD-pNA,0
same,increase in absorbance at 405 nm,Z-AA-pNA,0
same,increase in absorbance at 405 nm,Z-RK-pNA,0
same,increase in absorbance at 405 nm,Ac-EVKM-PNA,0
same,increase in absorbance at 405 nm,Z-RR-pNA,0
same,"Specific Activity (area/min/mg), DAEFR area by RP-HPLC",[4],2080 area/min/mg
"O=S(=O)(F)Cc1ccccc1 [PMSF, phenylmethylsulfonyl fluoride]",% Control Activity,amyloidin [1],69%
α1-PI: general plasma serine proteinase inhibitor,% Control Activity,"amyloidin [1]; assay conc. 30 ug/ml, 30 min pre-incubation, room temperature",98%
same,inhibitory effect on amyloidin,amyloidin [1]; in words,"Neither α-1-proteinase inhibitor or α-1-antichymotrypsin, two general plasma serine proteinase inhibitors, had any inhibitory effect"
"COC(=O)CCC(=O)N[C@@H](C)C(=O)N[C@@H](C)C(=O)N1CCC[C@H]1C(=O)N[C@H](C(=O)Nc1ccc([N+](=O)[O-])cc1)C(C)C [MeS-AAPV-pNA, Methoxysuccinylalanyl-alanyl-prolyl-valyl-] (MeOSuc-AAPV-pNA)",cleavage of p-NA substrate by amyloidin (increase in A405),amyloidin [2],0
"CSCC[C@H](NC(=O)[C@@H]1CCCN1C(=O)[C@H](C)NC(=O)[C@H](C)NC(=O)CCC(=O)O)C(=O)Nc1ccc([N+](=O)[O-])cc1 [Suc-AAPM-pNA, Suc-Ala-Ala-Pro-Met-pNA] (Suc-AAPM-pNA)",cleavage of p-NA substrate by amyloidin (increase in A405),amyloidin [2],0
"N=C(N)NCCC[C@H](NC(=O)OCc1ccccc1)C(=O)N[C@@H](CCCNC(=N)N)C(=O)Nc1ccc([N+](=O)[O-])cc1 [Z-RR-pNA, benzyloxycarbonyl arginylarginyl-] (Cbz-Arg-Arg-pNA)",cleavage of p-NA substrate by amyloidin (increase in A405),amyloidin [2],0
CSCC[C@H](NC(=O)[C@H](CCC(N)=O)NC(=O)[C@@H](NC(=O)[C@H](CCC(=O)O)NC(=O)[C@H](CO)NC(C)=O)C(C)C)C(=O)N[C@@H](CC(=O)O)C(=O)N[C@@H](C)C(=O)N[C@@H](CCC(=O)O)C(=O)N[C@@H](Cc1ccccc1)C(=O)N[C@@H](CCCNC(=N)N)C(N)=O [Gln595 analog] (Ac-SEVQMDAEFR-NH2),site of cleavage by amyloidin,amyloidin [5],all the cleavage by amyloidin was at the Met-Asp bond
"O=C(O)CN(CCN(CC(=O)O)CC(=O)O)CC(=O)O [EDTA, ethylenediaminetetraacetic acid]",cleavage of APP592-601 by amyloidin,amyloidin [1],no detectable cleavage
same,inhibitory effect on amyloidin,amyloidin [1],strongly inhibited
α1-antichymotrypsin,% Control Activity (cleavage of APP592-601) (% control activity),[6],121
CC(=O)N[C@@H](CO)C(=O)N[C@@H](CCC(=O)O)C(=O)N[C@H](C(=O)N[C@@H](CCCCN)C(=O)N[C@@H](C)C(=O)N[C@@H](CC(=O)O)C(=O)N[C@@H](C)C(=O)N[C@@H](CCC(=O)O)C(=O)N[C@@H](Cc1ccccc1)C(=O)N[C@@H](CCCNC(=N)N)C(N)=O)C(C)C [replacement of Met596 by Ala] (Ac-SEVKADAEFR-NH2),site of cleavage by amyloidin,amyloidin [5],"loss of cleavage at this site, but cleavage shifted to the Lys595-Ala596 bond"
"c1cnc2c(c1)ccc1cccnc12 [1,10-phen., 1,10phenanthroline]",remaining activity at 100 µM,"amyloidin [1]; assay conc. 0.1 mM, stock in DMSO, 30 min pre-incubation, room temperature, read-out: % Control Activity",75%
same,inhibitory effect on amyloidin,amyloidin [1]; in words,only weakly inhibitory
Butyloxycarbonylalanyl-alanyl-aspartyl- (Boc-Ala-Ala-Asp-pNA; SMILES C[C@H](NC(=O)OC(C)(C)C)C(=O)N[C@@H](C)C(=O)N[C@@H](CC(=O)O)C(=O)Nc1ccc([N+](=O)[O-])cc1) [Boc-AAd-Pna],cleavage of p-NA substrate by amyloidin (increase in A405),amyloidin [2],0
α1-proteinase inhibitor,% Control Activity (cleavage of APP592-601) (% control activity),[6],98
CC(C)C[C@H](NP(=O)(O)O[C@@H]1O[C@@H](C)[C@H](O)[C@@H](O)[C@H]1O)C(=O)N[C@@H](Cc1c[nH]c2ccccc12)C(=O)O [phosphoramidon],remaining activity at 100 µg/mL,"amyloidin [1]; assay conc. 0.1 mg/ml, 30 min pre-incubation, room temperature, read-out: % Control Activity",79%
same,inhibitory effect on amyloidin,amyloidin [1]; in words,only weakly inhibitory
"C[C@H](NC(=O)CCC(=O)O)C(=O)N[C@@H](C)C(=O)N1CCC[C@H]1C(=O)N[C@@H](Cc1ccccc1)C(=O)Nc1ccc([N+](=O)[O-])cc1 [Suc-AAPF-pNA, Succinylalanyl-alanyl-prolyl-phenylalanyl-] (Suc-AAPF-pNA)",cleavage of p-NA substrate by amyloidin (increase in A405),amyloidin [2],0
CC(C)C[C@H](NC(=O)[C@H]1O[C@@H]1C(=O)O)C(=O)NCCCCN=C(N)N [E-64],remaining activity at 1 µg/mL,"amyloidin [1]; assay conc. 1 ug/ml, 30 min pre-incubation, room temperature, read-out: % Control Activity",119%
same,inhibitory effect on amyloidin,amyloidin [1]; in words,no inhibitory effect
"CC(=O)N[C@@H](C)C(=O)N[C@@H](CC(=O)O)C(=O)Nc1ccc([N+](=O)[O-])cc1 [Ac-AD-pNA, Acetylalanyl-aspartyl-] (Ac-Ala-Asp-pNA)",cleavage of p-NA substrate by amyloidin (increase in A405),amyloidin [2],0
B1,percent of Suc-Ala-Ala-Pro-Phe-pNA hydrolysing activity bound to the matrix,[7],95% of this activity had bound to the matrix
